Source: patent US20150320704A1, “COMPOSITIONS AND METHODS FOR TREATMENT OF HAIR LOSS” (DS Healthcare Group, Inc., priority 2014, published 2015)

How the values were obtained:
[1] = test system: male subjects experiencing active thinning-hair; assay: Hair regrowth study, double blind, daily topical application for 90 days; assay type: in vivo, human
Procedure: A double blind study was performed on male subjects between the ages of 25 and 55 years who had been experiencing active thinning-hair. […] A global photograph of each subject was taken from the crown area and a second photograph was taken of the top of the head to track frontal areas. […] In addition to the pimarene compounds, the formulations contained pine resin compounds that are not calcium channel opening agents, including abietic acid, neoabietic acid, dehydroabietic acid, and palustric acid. The target sites of each subject were monitored over the 90 day period and photographs were again obtained at the end of this period and compared to those at baseline.
The formulation lacks a pine resin compound other than a pimarene compound.

balding macaques = conditions: topical application, 20-week treatment period; cited from earlier work
humans = conditions: cited from earlier work
[2] = Example 2: study of Example 1 repeated, formulation of vehicle and one pimarene compound, lacking other pine resin compounds
[3] = Example 3: study of Example 1 repeated, formulation of vehicle and a potassium channel opening agent other than pimarene compounds

Molecule: CC[C@@]1(C)CC[C@H]2C(=CC[C@H]3[C@](C)(CO)CCC[C@]23C)C1 [dihydroisopimarinol]
- hair thickness and growth, outcome of treatment [1, 2]: improvement in hair thickness and growth in a majority of the subjects

Molecule: CNC(=S)[C@]1(c2cccnc2)CCCC[S+]1[O-] (some centres unmarked) [RP-49,356]
- scalp hair growth (balding macaques): not effective in promoting hair growth

Molecule: C=C[C@@]1(C)C=C2CC[C@@H]3[C@](C)(CCC[C@@]3(C)C(=O)O)[C@H]2CC1 [pimaric acid]
- hair thickness and growth, outcome of treatment [1, 2]: improvement in hair thickness and growth in a majority of the subjects

Molecule: CC(N/C(=N\C#N)Nc1ccncc1)C(C)(C)C (centres unmarked) [pinacidil]
- hypertrichosis (humans): cause hypertrichosis

Molecule: FC(F)(F)C(Cl)Br (centres unmarked) [halothane]
- hair thickness and growth, outcome of treatment [1, 3]: improvement in hair thickness and growth in a majority of the subjects

Molecule: CC1=NS(=O)(=O)c2cc(Cl)ccc2N1 [diazoxide]
- hypertrichosis (humans): cause hypertrichosis

Molecule: CC(C(O)c1ccc(O)cc1)N1CCC(Cc2ccccc2)CC1 (centres unmarked) [ifenprodil]
- hair thickness and growth, outcome of treatment [1, 3]: improvement in hair thickness and growth in a majority of the subjects

Molecule: COc1ccc(Cl)cc1[C@]1(F)C(=O)Nc2cc(C(F)(F)F)ccc21 [BIAS-204352]
- hair thickness and growth, outcome of treatment [1, 3]: improvement in hair thickness and growth in a majority of the subjects

Molecule: C=C[C@@]1(C)CC[C@H]2C(=CC[C@@H]3[C@]2(C)CCC[C@@]3(C)C(=O)O)C1 [isopimaric acid]
- hair thickness and growth, outcome of treatment [1, 2]: improvement in hair thickness and growth in a majority of the subjects

Molecule: CC1(C)Oc2ccc(C#N)cc2C(N2CCCC2=O)C1O (centres unmarked) [cromakalin]
- scalp hair growth (balding macaques): stimulated hair growth

Molecule: C=C[C@]1(C)C=C2CC[C@@H]3[C@](C)(CCC[C@@]3(C)C(=O)O)[C@H]2CC1 [sandaracopimaric acid]
- hair thickness and growth, outcome of treatment [1, 2]: improvement in hair thickness and growth in a majority of the subjects

Molecule: CCC(C)(C)N=C(NC#N)Nc1cccnc1 [P-1075]
- scalp hair growth (balding macaques): stimulated hair growth

Molecule: CC[C@@]1(C)CC[C@H]2C(=CCC3[C@]2(C)CCC[C@]3(C)C(=O)O)C1 (some centres unmarked) [dihydroisopimaric acid]
- hair thickness and growth, outcome of treatment [1, 2]: improvement in hair thickness and growth in a majority of the subjects

Molecule: dihydropimaric acid
- hair thickness and growth, outcome of treatment [1, 2]: improvement in hair thickness and growth in a majority of the subjects
